From paper PMC6262536 (Cells, 2018)

Legend:
Experiment in all cases: cells
[1] = test system: doxorubicin-resistant subline (LoVo/DX); format: cell-based, human; conditions: 72 h, SRB, mean ± SD
Source text: (§1) The BALB/3T3 cell line was purchased from the American Type Culture Collection (ATCC, Manassas, VA, USA), A549 and MCF-7 cell lines—from European Collection of Authenticated Cell Cultures (Salisbury, UK), LoVo cell line was purchased from the ATCC (ATCC, Manassas, VA, USA), and LoVo/DX by courtesy of Prof. E. Borowski (Technical University of Gdańsk, Gdańsk, Poland). All the cell lines are maintained in the Institute of Immunology and Experimental Therapy (IIET), Wroclaw, Poland. […] Human breast adenocarcinoma cell line was cultured in mixture of Eagle medium (IIET, Wroclaw, Poland), supplemented with 10% fetal bovine serum, 2 mM L-glutamine, 8 μg/mL insulin and 1% amino-acids (Sigma-Aldrich, Merck KGaA, Saint Louis, MO, USA). […] Murine embryonic fibroblast cells were cultured in Dulbecco medium (Life Technologies Limited, Paisley, UK), supplemented with 10% fetal bovine serum (GE Healthcare, Logan, UT, USA) and 2 mM glutamine (Sigma-Aldrich, Merck KGaA, Saint Louis, MO, USA). All culture media contained antibiotics: 100 U/mL penicillin and 100 μg/mL streptomycin (Polfa-Tarchomin, Warsaw, Poland). All cell lines were cultured during entire experiment in humid atmosphere at 37 °C and 5% CO2. […] The procedure is repeated every year or in the case of less frequently used lines: after thawing.
(§2) Twenty-four hours before adding the tested compounds, all cell lines were seeded in 96-well plates (Sarstedt, Nümbrecht, Germany) in appropriate media with 10^4 cells per well. All cell lines were exposed to each tested agent at four different concentrations in the range 100–0.01 μg/mL for 72 h. […] Additionally, all cell lines were exposed to DMSO (solvent used for tested compounds) (POCh, Gliwice, Poland) at concentrations corresponding to those present in tested agents’ dilutions. After 72 h sulforhodamine B assay (SRB) was performed.
(§3) After 72 h of incubation with the tested compounds, cells were fixed in situ by gently adding of 50 μL per well of cold 50% trichloroacetic acid TCA (POCh, Gliwice, Poland) and were incubated at 4 °C for one hour. Following, wells were washed four times with water and air dried. Next, 50 μL of 0.1% solution of sulforhodamine B (Sigma-Aldrich, Merck KGaA, Saint Louis, MO, USA) in 1% acetic acid (POCh, Gliwice, Poland) were added to each well and plates were incubated at room temperature for 0.5 h. After incubation time, unbound dye was removed by washing plates four times with 1% acetic acid whereas stain bound to cells was solubilized with 10 mM Tris base (Sigma-Aldrich, Steinheim, Germany). Absorbance of each solution was read at Synergy H4 Hybrid Multi-Mode Microplate Reader (BioTek Instruments, Inc., Winooski, VT, USA) at the 540 nm wavelength.
(§4) Compounds at each concentration were tested in triplicates in single experiment and each experiment was repeated at least three times independently. The Resistance Index (RI) was defined as the ratio of IC50 for a given compound calculated for resistant cell line to that measured for its parental drug sensitive cell line (Table 1).

[2] = test system: human lung adenocarcinoma (A549); format: cell-based; conditions: A549, 72 h, SRB, mean ± SD
Source text: as §1, §2, §3, §4

[3] = test system: human colon adenocarcinoma cell line (LoVo); format: cell-based; conditions: 72 h, SRB, mean ± SD
Source text: as §1, §2, §3, §4

[4] = test system: normal murine embryonic fibroblast cell line (BALB/3T3); format: cell-based; conditions: normal murine fibroblasts BALB/3T3, 72 h, SRB, mean ± SD
Source text: as §1, §2, §3, §4

[5] = test system: human breast adenocarcinoma (MCF-7); format: cell-based; conditions: MCF-7, 72 h, SRB, mean ± SD
Source text: as §1, §2, §3, §4

Row | Structure (SMILES) | IC50 ([1]; Homo sapiens) | IC50 ([2]; Homo sapiens) | IC50 ([3]; Homo sapiens) | IC50 ([4]; Mus musculus) | IC50 ([5]; Homo sapiens, MCF7) | IC50 [1] | IC50 [2] | IC50 [3] | IC50 [4] | IC50 [5]
1 | COc1c(Br)c2c(c(OC)c1OC)-c1ccc(OC)c(=O)cc1[C@@H](NC(C)=O)CC2 [Compound 5, 4-bromocolchicine] | 1550 ± 170 nM | 105 ± 8 nM | 84 ± 21 nM | 142 ± 73 nM | 27 ± 8 nM |  |  |  |  | 
2 | COc1c(Cl)c2c(c(OC)c1OC)-c1ccc(SC)c(=O)cc1[C@@H](NC(C)=O)CC2 [Compound 4] | 111 ± 44 nM | 22 ± 2 nM | 22 ± 2 nM | 22 ± 2 nM | 22 ± 2 nM |  |  |  |  | 
3 | COc1c(I)c2c(c(OC)c1OC)-c1ccc(OC)c(=O)cc1[C@@H](NC(C)=O)CC2 [Compound 7, 4-iodocolchicine] | 2780 ± 450 nM | 94 ± 6 nM | 10 ± 2 nM | 135 ± 56 nM | 98 ± 29 nM |  |  |  |  | 
4 | COc1c(Cl)c2c(c(OC)c1OC)-c1ccc(OC)c(=O)cc1[C@@H](NC(C)=O)CC2 [Compound 3, 4-chlorocolchicine] | 784 ± 280 nM | 46 ± 35 nM | 69 ± 12 nM | 138 ± 69 nM | 23 ± 5 nM |  |  |  |  | 
5 | COc1c(Br)c2c(c(OC)c1OC)-c1ccc(SC)c(=O)cc1[C@@H](NC(C)=O)CC2 [Compound 6, 4-bromothiocolchine] | 135 ± 12 nM | 10 ± 0.1 nM | 14 ± 4 nM | 103 ± 89 nM | 15 ± 2 nM |  |  |  |  | 
6 | COc1c(I)c2c(c(OC)c1OC)-c1ccc(SC)c(=O)cc1[C@@H](NC(C)=O)CC2 [Compound 8, 4-iodothiocolchicine] | 642 ± 84 nM | 11 ± 2 nM | 7 ± 2 nM | 115 ± 44 nM | 17 ± 6 nM |  |  |  |  | 
7 | N.N.[Cl][Pt][Cl] [Cisplatin, reference compound] |  |  |  |  |  | 5700 ± 630 nM | 6370 ± 1410 nM | 4370 ± 730 nM | 3900 ± 1500 nM | 10700 ± 753 nM
8 | COc1cccc2c1C(=O)c1c(O)c3c(c(O)c1C2=O)C[C@@](O)(C(=O)CO)C[C@@H]3O[C@H]1C[C@H](N)[C@H](O)[C@H](C)O1 [Doxorubicin, reference compound] | 4750 ± 990 nM | 258 ± 44 nM |  | 166 ± 74 nM |  |  |  |  |  | 
